Several values for one entry are separate records, joined by “and”; a condition that tells them apart may be missing. Identical values can stand only once. Like-named read-outs stand apart in the source and are kept apart here.
Legend:
[1] = tested on: A. americanum; test: In vitro tick contact assay, comparison with standards
Experimental: (§1) A solution of the test compounds was used to coat the inner wall of glass vials and to treat two filter papers. Once dried, one filter paper was placed in the cap of the vial and the other in the bottom of the vial. Each treated vial was infested with 10 ticks. Contact of the ticks with residues was induced by holding the vials in a controlled environment and assessment was performed at 12, 24 and 48 hours after application in comparison with untreated glass vials and solvent-treated glass vials. Compounds were tested in duplicate and two separate trials (n=4).

[2] = tested on: R. sanguineus; test: as above
Experimental: as §1

[3] = tested on: Ctenocephalides felis; test: Ctenocephalides felis residual contact assay; details: for Contact EC50: 48 h, fleas
Experimental: Ctenocephalides felis Residual Contact Assay
A solution of the test compounds, individually and in combination was dispensed onto a substrate placed into a glass vial. The treated surface was allowed to dry before infesting each vial with 10 adult Ctenocephalides felis. The treated vials were held in a controlled environment and assessment was performed at 6, 24 and 48 hours after application in comparison with untreated controls glass vials and solvent-treated glass vials. Compounds were tested in duplicate and two separate trials (n=4).

[4] = tested on: I. scapularis; test: In vitro tick contact assay, comparison with standards
Experimental: as §1

[5] = tested on: D. variabilis; test: as above
Experimental: as §1

[6] = tested on: Ctenocephalides felis; details: for Ingestion EC50: fleas
Experimental: In Vitro Evaluation of Ingestion Activity Against Fleas (Ctenocephalides Felis)
For flea ingestion tests, an aliquot of each compound stock was added to organic bovine blood contained in an artificial feeding container, with a final DMSO concentration of 0.5%. Ten newly emerged unfed fleas, Ctenocephalides felis, from a laboratory colony, 0-7 days old, were aspirated into a chamber and exposed to the appropriate feeding container and held in a controlled environment at 35° C. Fleas were evaluated for % mortality at 24, 48, and 72 hours post infestation. Fleas showing normal movement and/or jumping ability were considered viable and those showing no movement after tapping the vials were scored as dead. The compound+blood mixture was replaced every 24 hours.

[7] = tested on: Dirofilaria immitis microfilariae; test: Dirofilaria immitis microfilariae motility assay; details: 72 h, read-out: concentration at which active, microfilariae motility
[8] = tested on: Aedes aegypti; test: In vitro evaluation of ingestion activity against mosquitoes; details: at 20 hours, compound in bovine blood, read-out: concentration at which active, mosquito ingestion
Experimental: In Vitro Evaluation of Ingestion Activity Against Mosquitoes (Aedes aegypti)
A solution of test compounds is added to bovine blood contained in a feeding chamber to reach the desired final concentration. Blood spiked with DMSO is prepared to serve as control. Adult female mosquitoes are introduced at the bottom of the chamber and allowed to feed on blood mixtures containing DMSO or test compounds for 30 minutes. Fully engorged mosquitoes are sorted into clean chambers after the blood meal and monitored for survival over 3 days. Replicates containing 10 mosquitoes are performed with each test compound concentration and results calculated as % mortality at specific time points.

In the case of `O=C(CNC(=O)c1ccc(C2=NOC(c3cc(Cl)cc(C(F)(F)F)c3)(C(F)(F)F)C2)c2ccccc12)NCC(F)(F)F` (stereo not drawn) [Afoxolaner], the “A. americanum Contact EC50” value ([1]; 24 h) is reported as 31.6 ppm and > 50 ppm, the “A. americanum Contact EC50” value ([1]; 48 h) is reported as 11.3 ± 2.3 ppm and the “R. sanguineus Contact EC50” value ([2]; 24 h) is reported as >50 ppm. For the same molecule, the “R. sanguineus Contact EC50” value ([2]; 48 h) was 20.2 ± 5.0 ppm, the “Contact EC50” value [3] was >50 ppm and the “I. scapularis Contact EC50” value ([4]; 24 h) was 17.8 ± 5.9 ppm. For the same molecule, the “I. scapularis Contact EC50” value ([4]; 48 h) was 5.31 ± 1.8 ppm, the “D. variabilis Contact EC50” value ([5]; 24 h) was >50 ppm and the “D. variabilis Contact EC50” value ([5]; 48 h) was 12.35 ± 0.5 ppm. For the same molecule, the “Ingestion EC50” value ([6]; 2 h) was 6.0 ± 2.9 ppm and the “Ingestion EC50” value ([6]; 24 h) was 0.13 ± 0.05 ppm.
With `O=C(CC(F)(F)F)N1CC2(C1)OCc1cc(C3=NSC(c4cc(Cl)c(F)c(Cl)c4)(C(F)(F)F)C3)ccc12` (stereo not drawn) [Compound 1, 1-[6-[5-(3,5-dichloro-4-fluoro-phenyl)-5-(trifluoromethyl)-4H-isothiazol-3-yl]spiro[1H-isobenzofuran-3,3′-azetidine]-1′-yl]-3,3,3-trifluoro-propan-1-one] the “A. americanum Contact EC50” value ([1]; 24 h) was 13.5 ± 5.1 ppm, the “A. americanum Contact EC50” value ([1]; 48 h) was 2.7 ± 0.4 ppm and the “R. sanguineus Contact EC50” value ([2]; 24 h) was 17.0 ± 3.8 ppm. The “R. sanguineus Contact EC50” value ([2]; 48 h) was 4.6 ± 3.0 ppm, the “Contact EC50” value [3] was 29.0 ± 0.3 ppm and the “flea potency by contact relative to commercially available standards” value ([3]; versus fluralaner, afoxolaner) was “superior potency by contact”. For the same molecule, the “I. scapularis Contact EC50” value ([4]; 24 h) was 2.0 ± 0.4 ppm, the “I. scapularis Contact EC50” value ([4]; 48 h) was 0.04 ± 0.02 ppm and the “D. variabilis Contact EC50” value ([5]; 24 h) was 12.2 ± 0.6 ppm. The “D. variabilis Contact EC50” value ([5]; 48 h) was 5.0 ± 1.6 ppm, the “Ingestion EC50” value ([6]; 2 h) was 2.6 ± 0.3 ppm and the “Ingestion EC50” value ([6]; 24 h) was 0.20 ± 0.10 ppm. The “flea potency by ingestion relative to commercially available standards” value ([6]; versus fluralaner, afoxolaner, (+/−)sarolaner) was “comparable potency by ingestion”, the minimal effective concentration [7] was < 10 µM and the minimal effective concentration [8] was < 1 µg/mL.
For `Cc1cc(C2=NOC(c3cc(Cl)cc(Cl)c3)(C(F)(F)F)C2)ccc1C(=O)NCC(=O)NCC(F)(F)F` (stereo not drawn) [Fluralaner], the “A. americanum Contact EC50” value ([1]; 48 h) was 20.4 ± 10.7 ppm, the “R. sanguineus Contact EC50” value ([2]; 24 h) was 37.1 ± 16.3 ppm and the “R. sanguineus Contact EC50” value ([2]; 48 h) was 9.8 ± 5.0 ppm. The “Contact EC50” value [3] was >50 ppm, the “I. scapularis Contact EC50” value ([4]; 24 h) was 6.4 ± 3.3 ppm and the “I. scapularis Contact EC50” value ([4]; 48 h) was 1.3 ± 0.2 ppm. For the same molecule, the “D. variabilis Contact EC50” value ([5]; 24 h) was 18.4 ± 3.0 ppm, the “D. variabilis Contact EC50” value ([5]; 48 h) was 4.9 ± 1.4 ppm and the “Ingestion EC50” value ([6]; 2 h) was 1.6 ± 0.7 ppm. For the same molecule, the “Ingestion EC50” value ([6]; 24 h) was 0.06 ± 0.02 ppm.
